Results published in patent EP4678644A1, “SUBSTITUTED DIHYDROTHIENOPYRIMIDINE COMPOUND, PREPARATION METHOD THEREFOR, AND USE THEREOF” (Shanghai Yidi Biotechnology Co., Ltd., priority 2023, dated 2024).
Blank lines part the entries; values can stand above or below the compound they belong to.

How the values were obtained:
[1] = biological target: PDE4D2 (Homo sapiens, UniProt Q08499); assay: PDE4D2 enzyme experiment (AMP-glo, cAMP substrate); format: biochemical; conditions: read-out: PDE4D2 IC50 Binding
Description: Inhibition rate % ^= (1 - (RLUpositive control - RLUcompound)/(RLUpositive control - RLUnegative control)) * 100.

[2] = biological target: T1, PDE4B2 (Homo sapiens, UniProt Q07343); assay: PDE4B2 cell experiment (cAMP, Eu-cAMP tracer / Ulight-anti-cAMP); format: cell-based; conditions: Flpin-293-PDE4B2 cells; for IC50: Foskolin; for Cell Inhibition% @10 nM / inhibition at 0.01 µM: 10 nM; for Cell Inhibition% @100 nM / inhibition at 0.1 µM: 100 nM
T1 construct: expressed in transfected cells; host or cells: Flp-In-293 (Flpin-293-PDE4B2 [sic])

[3] = biological target: T1, PDE4B2; assay: PDE4B2 enzyme experiment (AMP-glo, cAMP substrate); format: biochemical; conditions: for inhibition at 0.01 µM: read-out: PDE4B2 Enzyme Inhibition% @10 nM; for inhibition at 0.1 µM: read-out: PDE4B2 Enzyme Inhibition% @100 nM

Chain of PDE4D2 (Q08499 303-809 limits assumed): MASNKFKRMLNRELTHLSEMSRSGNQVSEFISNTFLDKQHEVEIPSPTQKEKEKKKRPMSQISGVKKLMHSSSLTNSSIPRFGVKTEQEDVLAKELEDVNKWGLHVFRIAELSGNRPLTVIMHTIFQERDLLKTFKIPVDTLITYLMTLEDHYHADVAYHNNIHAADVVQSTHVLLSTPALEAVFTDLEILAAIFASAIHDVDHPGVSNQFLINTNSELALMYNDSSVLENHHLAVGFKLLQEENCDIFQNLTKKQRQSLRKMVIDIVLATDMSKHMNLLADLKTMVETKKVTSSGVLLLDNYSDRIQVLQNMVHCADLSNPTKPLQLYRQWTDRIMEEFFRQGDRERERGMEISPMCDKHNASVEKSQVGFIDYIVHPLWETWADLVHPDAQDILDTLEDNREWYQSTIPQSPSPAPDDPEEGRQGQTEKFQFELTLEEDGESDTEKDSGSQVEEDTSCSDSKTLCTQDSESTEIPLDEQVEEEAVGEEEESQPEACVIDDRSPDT
T1 sequence (Q07343 1-564 isoform Q07343-2): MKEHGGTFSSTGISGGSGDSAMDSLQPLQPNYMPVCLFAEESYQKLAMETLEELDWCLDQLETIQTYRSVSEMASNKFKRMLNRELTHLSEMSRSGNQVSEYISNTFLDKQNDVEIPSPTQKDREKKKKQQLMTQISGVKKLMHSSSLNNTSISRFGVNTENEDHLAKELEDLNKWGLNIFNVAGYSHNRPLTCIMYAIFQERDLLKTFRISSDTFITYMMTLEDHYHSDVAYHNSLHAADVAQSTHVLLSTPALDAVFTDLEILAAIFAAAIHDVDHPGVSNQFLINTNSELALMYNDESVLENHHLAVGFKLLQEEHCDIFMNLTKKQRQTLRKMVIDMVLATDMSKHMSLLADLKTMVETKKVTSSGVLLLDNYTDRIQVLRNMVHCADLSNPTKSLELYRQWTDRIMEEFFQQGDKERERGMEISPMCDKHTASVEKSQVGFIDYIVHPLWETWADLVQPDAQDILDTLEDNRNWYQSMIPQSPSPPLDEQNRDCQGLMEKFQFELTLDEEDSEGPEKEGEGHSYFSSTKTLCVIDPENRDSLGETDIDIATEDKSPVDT

IC50 [1]: 6.38 nM
SMILES: [O-][S@+]1CCc2nc(N3CCc4c(ccc(N5CCCC5)c4F)C3)nc(NC3(CO)CCC3)c21 [Compound 180, (R)-2-(5-fluoro-6-(pyrrolidin-1-yl)-3,4-dihydroisoquinolin-2(1H)-yl)-4-((1-(hydroxymethyl)cyclobutyl)amino)-6,7-dihydrothieno[3,2-d]pyrimidine 5-oxide]

IC50 [1]: 0.276 nM
SMILES: [O-][S@+]1CCc2nc(N3CCc4c(sc5ccc(F)cc45)C3)nc(NC3(CO)CCC3)c21 [Compound 69, (R)-2-(6-fluoro-3,4-dihydrobenzo[4,5]thieno[2,3-c]pyridin-2(1H)-yl)-4-((1-(hydroxymethyl)cyclobutyl)amino)-6,7-dihydrothieno[3,2-d]pyrimidine 5-oxide]

IC50 [1]: 1.22 nM
SMILES: [O-][S@+]1CCc2nc(N3CCc4cc(Br)sc4C3)nc(NC3(CO)CCC3)c21 [Compound 53, (R)-2-(2-bromo-4,7-dihydrothieno[2,3-c]pyridin-6(5H)-yl)-4-((1-(hydroxymethyl)cyclobutyl)amino)-6,7-dihydrothieno[3,2-d]pyrimidine 5-oxide]

IC50 [1]: 3.21 nM
SMILES: [O-][S@+]1CCc2nc(N3CCc4cc(Cl)ccc4C3)nc(NC3(CO)CCC3)c21 [Compound 18, (R)-2-(6-chloro-3,4-dihydroisoquinolin-2(1H)-yl)-4-((1-(hydroxymethyl)cyclobutyl)amino)-6,7-dihydrothieno[3,2-d]pyrimidine 5-oxide]

IC50 [1]: 0.0931 nM
SMILES: [O-][S@+]1CCc2nc(N3CCc4cc(-c5nccs5)ccc4C3)nc(NC3(CO)CCC3)c21 [Compound 65, (R)-4-((1-(hydroxymethyl)cyclobutyl)amino)-2-(6-(thiazol-2-yl)-3,4-dihydroisoquinolin-2(1H)-yl)-6,7-dihydrothieno[3,2-d]pyrimidine 5-oxide]

IC50 [1]: 1.09 nM
SMILES: CNc1nc2cc(Cl)ccc2c2c1CN(c1nc3c(c(NC4(CO)CCC4)n1)[S@+]([O-])CC3)CC2 [Compound 74, (R)-2-(8-chloro-5-(methylamino)-1,4-dihydrobenzo[c][2,7]naphthyridin-3(2H)-yl)-4-((1-(hydroxymethyl)cyclobutyl)amino)-6,7-dihydrothieno[3,2-d]pyrimidine 5-oxide]

IC50 [1]: 0.958 nM
SMILES: [O-][S@+]1CCc2nc(N3CCc4c(c(Cl)nc5cc(Cl)ccc45)C3)nc(NC3(CO)CCC3)c21 [Compound 73, (R)-2-(5,8-dichloro-1,4-dihydrobenzo[c][2,7]naphthyridin-3(2H)-yl)-4-((1-(hydroxymethyl)cyclobutyl)amino)-6,7-dihydrothieno[3,2-d]pyrimidine 5-oxide]

IC50 [1]: 0.089 nM
SMILES: Cn1nccc1-c1ccc2c(c1)CCN(c1nc3c(c(NC4(CO)CCC4)n1)[S@+]([O-])CC3)C2 [Compound 76, (R)-4-((1-(hydroxymethyl)cyclobutyl)amino)-2-(6-(1-methyl-1H-pyrazol-5-yl)-3,4-dihydroisoquinolin-2(1H)-yl)-6,7-dihydrothieno[3,2-d]pyrimidine 5-oxide]

IC50 [1]: 0.695 nM
SMILES: COc1cc2c(cc1[N+](=O)[O-])CCN(c1nc3c(c(NC4(CO)CCC4)n1)[S@+]([O-])CC3)C2 [Compound 50, (R)-4-((1-(hydroxymethyl)cyclobutyl)amino)-2-(7-methoxy-6-nitro-3,4-dihydroisoquinolin-2(1H)-yl)-6,7-dihydrothieno[3,2-d]pyrimidine 5-oxide]

IC50 [1]: 7.72 nM
SMILES: [O-][S@+]1CCc2nc(N3CCc4c(nn5cc(Cl)cnc45)C3)nc(NC3(CO)CCC3)c21 [Compound 1, (R)-2-(3-chloro-9,10-dihydropyrido[3',4':3,4]pyrazolo[1,5-a]pyrimidin-8(7H)-yl)-4-((1-(hydroxymethyl)cyclobutyl)amino)-6,7-dihydrothieno[3,2-d]pyrimidine 5-oxide]

IC50 [1]: 0.876 nM
SMILES: [O-][S@+]1CCc2nc(N3CCc4cc(N5CCCC5)c(F)cc4C3)nc(NC3(CO)CCC3)c21 [Compound 181, (R)-2-(7-fluoro-6-(pyrrolidin-1-yl)-3,4-dihydroisoquinolin-2(1H)-yl)-4-((1-(hydroxymethyl)cyclobutyl)amino)-6,7-dihydrothieno[3,2-d]pyrimidine 5-oxide]

IC50 [1]: 0.587 nM
SMILES: [O-][S@+]1CCc2nc(N3CCc4c(cnc5cc(Cl)ccc45)C3)nc(NC3(CO)CCC3)c21 [Compound 72, (R)-2-(8-chloro-1,4-dihydrobenzo[c][2,7]naphthyridin-3(2H)-yl)-4-((1-(hydroxymethyl)cyclobutyl)amino)-6,7-dihydrothieno[3,2-d]pyrimidine 5-oxide]

Cell Inhibition% @10 nM [2]: 52.78% | Cell Inhibition% @100 nM [2]: 93.43% | PDE4B2 Enzyme Inhibition% @10 nM [3]: 93.26% | PDE4B2 Enzyme Inhibition% @100 nM [3]: 99.90%
SMILES: [O-][S+]1CCc2nc(N3CCc4sc(Br)cc4C3)nc(NC3(CO)CCC3)c21 (stereo not drawn) [Compound 55]

IC50 [2]: 205 nM | IC50 [3]: 7.17 nM
SMILES: [O-][S+]1CCc2nc(N3CCc4c(Cl)cccc4C3)nc(NC3(CO)CCC3)c21 (stereo not drawn) [Compound 19]

IC50 [1]: 0.224 nM
SMILES: [O-][S@+]1CCc2nc(N3CCc4c(nn5cc(Cl)ccc45)C3)nc(NC3(CO)CCC3)c21 [Compound 9, (R)-2-(7-Chloro-3,4-dihydropyrazolo[1,5-a:3,4-c']dipyridin-2(1H)-yl)-4-((1-(hydroxymethyl)cyclobutyl)amino)-6,7-dihydrothieno[3,2-d]pyrimidine 5-oxide]

SMILES: [O-][S@+]1CCc2nc(N3CC[C@@H]4c5ccc(Cl)cc5CC[C@@H]4C3)nc(NC3(CO)CCC3)c21 [Compound 12, (R)-2-((4aS,10bS)-8-chloro-1,4,4a,5,6,10-hexahydrobenzo[f]isoquinolin-3(2H)-yl)-4-((1-(hydroxymethyl)cyclobutyl)amino)-6,7-dihydrothieno[3,2-d]pyrimidine 5-oxide]
inhibition at 0.01 µM [2]: 16% | inhibition at 0.1 µM [2]: 7.46% | IC50 [3]: 15.4 nM

inhibition at 0.001 µM ([2]; 1 nM): 4.67% | inhibition at 0.01 µM [2]: 48.6% | inhibition at 0.1 µM [2]: 96.7% | inhibition at 0.01 µM [3]: 20.4% | inhibition at 0.1 µM [3]: 78.8%
SMILES: CN1CC=C(c2ccc3c(c2)CCN(c2nc4c(c(NC5(CO)CCC5)n2)[S@+]([O-])CC4)C3)C1 [Compound 169, (R)-4-((1-(hydroxymethyl)cyclobutyl)amino)-2-(6-(1-methyl-2,5-dihydro-1H-pyrrol-3-yl)-3,4-dihydroisoquinolin-2(1H)-yl)-6,7-dihydrothieno[3,2-d]pyrimidine 5-oxide]

IC50 [2]: 3.99 nM | inhibition at 0.01 µM [3]: 99.8% | inhibition at 0.1 µM [3]: 100%
SMILES: Cn1c(=O)c2c(c3ccc(Cl)cc31)CCN(c1nc3c(c(NC4(CO)CCC4)n1)[S@+]([O-])CC3)C2 [Compound 45, (R)-8-chloro-3-(4-((1-(hydroxymethyl)cyclobutyl)amino)-5-oxido-6,7-dihydrothieno[3,2-d]pyrimidin-2-yl)-6-methyl-2,3,4,6-tetrahydrobenzo[c][2,7]naphthyridin-5(1H)-one]

Cell Inhibition% @1 nM ([2]; 1 nM): 4.93% | Cell Inhibition% @10 nM [2]: 24.88% | Cell Inhibition% @100 nM [2]: 51.36% | IC50 [3]: 0.81 nM
SMILES: NC(=O)c1ccc2c(c1)CCN(c1nc3c(c(NC4(CO)CCC4)n1)[S+]([O-])CC3)C2 (stereo not drawn) [Compound 75]

inhibition at 0.01 µM [2]: 3.5% | inhibition at 0.1 µM [2]: 15.1% | inhibition at 0.01 µM [3]: 45% | inhibition at 0.1 µM [3]: 94.1%
SMILES: [O-][S@+]1CCc2nc(N3Cc4nc5cc(Cl)ccn5c4C3)nc(NC3(CO)CCC3)c21 [Compound 8, (R)-2-(6-chloro-1,3-dihydro-2H-pyrrolo[3',4':4,5]imidazo[1,2-a]pyridin-2-yl)-4-((1-(hydroxymethyl)cyclobutyl)amino)-6,7-dihydrothieno[3,2-d]pyrimidine 5-oxide]

Cell Inhibition% @10 nM [2]: 18.10% | Cell Inhibition% @100 nM [2]: 66.60% | PDE4B2 Enzyme Inhibition% @10 nM [3]: 74.54% | PDE4B2 Enzyme Inhibition% @100 nM [3]: 99.04%
SMILES: [O-][S+]1CCc2nc(N3CCc4ccsc4C3)nc(NC3(CO)CCC3)c21 (stereo not drawn) [Compound 36]

Cell Inhibition% @10 nM [2]: 17.7% | Cell Inhibition% @100 nM [2]: 55.2% | PDE4B2 Enzyme Inhibition% @10 nM [3]: 70.90% | PDE4B2 Enzyme Inhibition% @100 nM [3]: 98.20%
SMILES: O=[N+]([O-])c1ccc2c(c1)CN(c1nc3c(c(NC4(CO)CCC4)n1)[S+]([O-])CC3)C2 (stereo not drawn) [Compound 61]

IC50 [2]: 89.5 nM | IC50 [3]: 2.99 nM
SMILES: [O-][S+]1CCc2nc(N3CCc4sccc4C3)nc(NC3(CO)CCC3)c21 (stereo not drawn) [Compound 37]

Cell Inhibition% @10 nM [2]: 9% | Cell Inhibition% @100 nM [2]: 33.2% | PDE4B2 Enzyme Inhibition% @10 nM [3]: 72.33% | PDE4B2 Enzyme Inhibition% @100 nM [3]: 98.64%
SMILES: [O-][S+]1CCc2nc(N3Cc4ccc(Cl)cc4C3)nc(NC3(CO)CCC3)c21 (stereo not drawn) [Compound 33]

Cell Inhibition% @10 nM [2]: 29.5% | Cell Inhibition% @100 nM [2]: 69.1% | PDE4B2 Enzyme Inhibition% @10 nM [3]: 83.85% | PDE4B2 Enzyme Inhibition% @100 nM [3]: 100.57%
SMILES: [O-][S+]1CCc2nc(N3Cc4ccc(C(F)(F)F)cc4C3)nc(NC3(CO)CCC3)c21 (stereo not drawn) [Compound 62]

Cell Inhibition% @10 nM [2]: 14.18% | Cell Inhibition% @100 nM [2]: 69.92% | IC50 [3]: 1.85 nM
SMILES: [O-][S+]1CCc2nc(N3CCc4ccc(Cl)cc4C3)nc(NC3(CO)CCC3)c21 (stereo not drawn) [Compound 20]

IC50 [2]: 36.3 nM | IC50 [3]: 0.68 nM
SMILES: C[C@H]1c2ccc(Cl)cc2CCN1c1nc2c(c(NC3(CO)CCC3)n1)[S@+]([O-])CC2 [Compound 28, (R)-2-((S)-6-chloro-1-methyl-3,4-dihydroisoquinolin-2(1H)-yl)-4-((1-(hydroxymethyl)cyclobutyl)amino)-6,7-dihydrothieno[3,2-d]pyrimidine 5-oxide]

Cell Inhibition% @10 nM [2]: 15.88% | Cell Inhibition% @100 nM [2]: 57.11% | PDE4B2 Enzyme Inhibition% @10 nM [3]: 68.74% | PDE4B2 Enzyme Inhibition% @100 nM [3]: 97.48%
SMILES: Cn1nc2c(c1Cl)CN(c1nc3c(c(NC4(CO)CCC4)n1)[S+]([O-])CC3)CC2 (stereo not drawn) [Compound 58]

Cell Inhibition% @10 nM [2]: 69.61% | Cell Inhibition% @100 nM [2]: 99.05% | PDE4B2 Enzyme Inhibition% @10 nM [3]: 98.91% | PDE4B2 Enzyme Inhibition% @100 nM [3]: 100.22%
SMILES: [O-][S+]1CCc2nc(N3CCc4ccc(Br)cc4CC3)nc(NC3(CO)CCC3)c21 (stereo not drawn) [Compound 46]
